Experimental findings from patent US9382228B2 (priority 2013, dated 2016) are described below.

One test deals with osteoclast precursors. As to the kind of experiment: cells. In kind it is cell-based. Conditions: read-out: Osteoclast assay. Here is the method:
Osteoclast Tartrate-Resistant Acid Phosphatase Assay
Diluted compound was transferred to a 384-well black clear bottom plate. Two-thousand five hundred osteoclast precursors (Lonza, Walkersville, Md.) were added per well in growth media containing Receptor Activator of Nuclear Factor Kappa-beta ligand (RANKL) and M-CSF (R&D Systems, Minneapolis, Minn.). […] Tartrate-resistant acid phosphatase activity in the supernatant samples was determined using an acid phosphatase assay kit (Sigma, St. Louis, Mo.). Absorbance was measured at 550 nm using a plate reader. Data was analyzed using Prism software (Graphpad, San Diego, Calif.) to calculate IC50 values.

Test [1] has as its target unphosphorylated c-KIT kinase (uKIT, Seq. ID no. 2) (Homo sapiens, UniProt P10721). Nature of the test: biochemical. The note with it: uKIT, enzymatic assay, ATP 2000 μM.
Method: uKit kinase (Seq. ID No. 2) Assay
In this assay, the oxidation of NADH (thus the decrease at A340 nm) was continuously monitored spectrophometrically. […] The inhibition reaction was started by mixing serial diluted test compound with the above reaction mixture. The absorption at 340 nm was monitored continuously for 4 hours at 30° C. on Synergy 2 plate reader (BioTech).
Test [2] has as its target T1, unphosphorylated c-FMS kinase (uFMS, Seq. ID no. 1) (Homo sapiens, UniProt P07333).
T1 sequence (P07333 538-972): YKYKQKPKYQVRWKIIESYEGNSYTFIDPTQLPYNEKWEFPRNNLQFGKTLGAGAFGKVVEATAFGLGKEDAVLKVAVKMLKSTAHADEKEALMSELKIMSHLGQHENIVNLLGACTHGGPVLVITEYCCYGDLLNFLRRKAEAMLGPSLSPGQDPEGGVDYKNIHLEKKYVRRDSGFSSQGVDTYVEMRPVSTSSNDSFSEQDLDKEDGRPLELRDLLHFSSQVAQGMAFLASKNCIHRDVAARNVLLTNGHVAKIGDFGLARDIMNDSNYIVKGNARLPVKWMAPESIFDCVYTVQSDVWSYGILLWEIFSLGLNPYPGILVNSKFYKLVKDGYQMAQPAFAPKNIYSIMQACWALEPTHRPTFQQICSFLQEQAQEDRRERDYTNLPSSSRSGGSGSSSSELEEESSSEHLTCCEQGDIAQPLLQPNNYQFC
Nature of the test: biochemical. Conditions: uFMS, enzymatic assay, ATP 500 μM.
Method: In this assay, the oxidation of NADH (thus the decrease at A340 nm) was continuously monitored spectrophometrically. The reaction mixture (100 μL) contained FMS (purchased from Millipore) (10 nM), polyE4Y (1 mg/mL), MgCl2 (10 mM), pyruvate kinase (4 units), lactate dehydrogenase (0.7 units), phosphoenol pyruvate (1 mM), NADH (0.28 mM) and ATP (500 μM) in 90 mM Tris buffer containing 0.2% octyl-glucoside and 1% DMSO, pH 7.5. The inhibition reaction was started by mixing serial diluted test compound with the above reaction mixture. The absorption at 340 nm was monitored continuously for 4 hours at 30° C. on Synergy 2 plate reader. The reaction rate was calculated using the 3 to 4 h time frame. Percent inhibition was obtained by comparison of reaction rate with that of a control (i.e. in the absence of test compound). IC50 values were calculated from a series of percent inhibition values determined at a range of inhibitor concentrations using software routines as implemented in the GraphPad Prism software package.

Test [3] addresses unphosphorylated PDGFRβ kinase (uPDGFRβ, Seq. ID No. 3) (Homo sapiens, UniProt P09619). As to the kind of experiment: biochemical. The note with it: uPDGFRb, enzymatic assay, ATP 500 μM.
Method: Unphosphorylated PDGFRβ (uPDGFRβ) Kinase (Seq. ID No. 3) Assay
In this assay, the oxidation of NADH (thus the decrease at A340 nm) was continuously monitored spectrophometrically. […] The inhibition reaction was started by mixing serial diluted test compound with the above reaction mixture. The absorption at 340 nm was monitored continuously for 4 h at 30° C. on a Polarstar Optima or Synergy 2 plate reader. The reaction rate was calculated using the 1.5 to 2.5 h time frame. Percent inhibition was obtained by comparison of reaction rate with that of a control (i.e. with no test compound). IC50 values were calculated from a series of percent inhibition values determined at a range of inhibitor concentrations using software routines as implemented in the GraphPad Prism software package.
The next test deals with M-NFS-60 cells. As to the kind of experiment: cells. The note with it: 67 h, read-out: M-NFS-60 cell proliferation.

unphosphorylated c-KIT kinase (uKIT, Seq. ID no. 2), sequence (P10721 with tags, fused parts or gaps): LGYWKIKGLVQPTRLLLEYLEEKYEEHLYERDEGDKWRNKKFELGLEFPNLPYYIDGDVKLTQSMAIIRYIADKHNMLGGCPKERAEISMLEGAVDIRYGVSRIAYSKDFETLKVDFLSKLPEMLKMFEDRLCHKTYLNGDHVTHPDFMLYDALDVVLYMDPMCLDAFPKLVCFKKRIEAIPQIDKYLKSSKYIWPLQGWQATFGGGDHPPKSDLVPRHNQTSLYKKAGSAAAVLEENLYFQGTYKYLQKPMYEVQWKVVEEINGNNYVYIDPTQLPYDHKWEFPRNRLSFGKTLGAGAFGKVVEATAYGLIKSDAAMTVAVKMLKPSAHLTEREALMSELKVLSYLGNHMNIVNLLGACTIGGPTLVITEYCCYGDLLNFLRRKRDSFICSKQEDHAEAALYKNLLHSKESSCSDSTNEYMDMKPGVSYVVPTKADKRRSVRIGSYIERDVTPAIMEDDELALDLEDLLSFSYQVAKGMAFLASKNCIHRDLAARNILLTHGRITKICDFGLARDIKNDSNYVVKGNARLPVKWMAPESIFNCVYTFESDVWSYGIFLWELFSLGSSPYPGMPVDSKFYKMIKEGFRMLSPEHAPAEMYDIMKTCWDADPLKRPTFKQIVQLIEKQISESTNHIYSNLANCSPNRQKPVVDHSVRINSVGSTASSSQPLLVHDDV
unphosphorylated PDGFRβ kinase (uPDGFRβ, Seq. ID No. 3), sequence (P09619 557-1106): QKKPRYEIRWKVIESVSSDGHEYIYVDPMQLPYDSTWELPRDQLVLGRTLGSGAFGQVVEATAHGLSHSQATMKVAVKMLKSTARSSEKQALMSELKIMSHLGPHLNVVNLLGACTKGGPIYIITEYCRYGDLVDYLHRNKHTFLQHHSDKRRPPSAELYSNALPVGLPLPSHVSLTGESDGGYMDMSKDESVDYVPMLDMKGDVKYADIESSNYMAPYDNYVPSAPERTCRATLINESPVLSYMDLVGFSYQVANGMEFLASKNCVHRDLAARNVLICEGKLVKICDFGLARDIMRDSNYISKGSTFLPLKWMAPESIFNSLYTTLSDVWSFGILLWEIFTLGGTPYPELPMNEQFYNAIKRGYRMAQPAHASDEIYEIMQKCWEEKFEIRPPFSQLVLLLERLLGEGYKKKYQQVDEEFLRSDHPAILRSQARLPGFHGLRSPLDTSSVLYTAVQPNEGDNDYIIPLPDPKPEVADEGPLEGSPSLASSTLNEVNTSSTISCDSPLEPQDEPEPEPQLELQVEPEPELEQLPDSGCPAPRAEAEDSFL
Method for M-NFS-60 cells: M-NFS-6 Cell Proliferation Assay
A serial dilution of test compound was dispensed into a 384-well black clear bottom plate (Corning, Corning, N.Y.). Two thousand five hundred cells were added per well in 50 μL complete growth medium. […] IC50 values were calculated from a series of percent inhibition values determined at a range of inhibitor concentrations using software routines as implemented in the GraphPad Prism software package.

As for `Cc1cn(-c2cc(Oc3ccc(NC(=O)NC(=O)[C@@H]4C[C@H]5CC[C@@H]4O5)nc3C)ccn2)cn1` (relative stereo) [Example 137, exo-N-((6-methyl-5-((2-(4-methyl-1H-imidazol-1-yl)pyridin-4-yl)oxy)pyridin-2-yl)carbamoyl)-7-oxabicyclo[2.2.1]heptane-2-carboxamide], the IC50 in the test on osteoclast precursors is 10 to 100 nM; in test [1], greater than 1000 nM; in test [2], 10 to 100 nM; in test [3], greater than 1000 nM; in the test with M-NFS-60 cells, 100 to 1000 nM.

In the case of `Cn1cc(-c2cc(Oc3ccc(NC(=O)NC(=O)C4CCOCC4)nc3)ccn2)cn1` [Example 68, N-((5-((2-(1-methyl-1H-pyrazol-4-yl)pyridin-4-yl)oxy)pyridin-2-yl)carbamoyl)tetrahydro-2H-pyran-4-carboxamide], the IC50 was less than 10 nM with osteoclast precursors; 100 to 1000 nM in test [1]; less than 10 nM in test [2]; 100 to 1000 nM in test [3]; 10 to 100 nM in the test on M-NFS-60 cells.

For the molecule `COC(C)(C)C(=O)NC(=O)Nc1ccc(Oc2ccnc(-c3cnc(C)n3C)c2)cn1` [Example 139, N-((5-((2-(1,2-dimethyl-1H-imidazol-5-yl)pyridin-4-yl)oxy)pyridin-2-yl)carbamoyl)-2-methoxy-2-methylpropanamide], the IC50 in the test on osteoclast precursors was 10 to 100 nM; in test [1] it was greater than 1000 nM; in test [2] it was 100 to 1000 nM; in test [3] it was greater than 1000 nM; in the test on M-NFS-60 cells, 100 to 1000 nM.

In the case of `Cc1cn(-c2cc(Oc3ccc(NC(=O)NC(=O)C(C)C)nc3C)ccn2)cn1` [Example 134, N-((6-methyl-5-((2-(4-methyl-1H-imidazol-1-yl)pyridin-4-yl)oxy)pyridin-2-yl)carbamoyl)isobutyramide], the IC50 in the test with osteoclast precursors was 10 to 100 nM; in test [1], greater than 1000 nM; in test [2], 10 to 100 nM; in test [3], greater than 1000 nM; in the test with M-NFS-60 cells, 100 to 1000 nM.

In the case of `CNc1ccc(-c2cc(Oc3ccc(NC(=O)NC(=O)C(C)(C)C)nc3)ccn2)cn1` [Example 105, N-((5-((6′-(methylamino)-[2,3′-bipyridin]-4-yl)oxy)pyridin-2-yl)carbamoyl)pivalamide], the IC50 in the test on osteoclast precursors is less than 10 nM; in test [1], 100 to 1000 nM; in test [2], less than 10 nM; in test [3], 100 to 1000 nM; in the test on M-NFS-60 cells it was 10 to 100 nM.

Take `Cc1ncc(-c2cc(Oc3ccc(NC(=O)NC(=O)C4CCOCC4)nc3)ccn2)s1` [Example 156, N-((5-((2-(2-methylthiazol-5-yl)pyridin-4-yl)oxy)pyridin-2-yl)carbamoyl)tetrahydro-2H-pyran-4-carboxamide]: the IC50 is 10 to 100 nM in the test on osteoclast precursors; 100 to 1000 nM in test [1]; 10 to 100 nM in test [2]; greater than 1000 nM in test [3]; 100 to 1000 nM in the test on M-NFS-60 cells.

As to `Cc1nc(NC(=O)NC(=O)C2(C(F)(F)F)CCC2)ccc1Oc1ccnc(-c2cnn(C)c2)c1` [Example 102, N-((6-methyl-5-((2-(1-methyl-1H-pyrazol-4-yl)pyridin-4-yl)oxy)pyridin-2-yl)carbamoyl)-1-(trifluoromethyl)cyclobutanecarboxamide], the IC50 in the test on osteoclast precursors is 10 to 100 nM; in test [1] it was 100 to 1000 nM; in test [2] it was less than 10 nM; in test [3], 100 to 1000 nM; with M-NFS-60 cells, less than 10 nM.

With `Cn1cc(-c2cc(Oc3ccc(NC(=O)NC(=O)C4CCCCC4)nc3)ccn2)cn1` [Example 67, N-((5-((2-(1-methyl-1H-pyrazol-4-yl)pyridin-4-yl)oxy)pyridin-2-yl)carbamoyl)cyclohexanecarboxamide], the IC50 is less than 10 nM in the test on osteoclast precursors; less than 10 nM in test [1]; less than 10 nM in test [2]; 10 to 100 nM in test [3]; less than 10 nM with M-NFS-60 cells.

Take `Cc1cc(NC(=O)NC(=O)C2CCOCC2)nc(C)c1Oc1ccnc(-c2cnn(C)c2)c1` [Example 117, N-((4,6-dimethyl-5-((2-(1-methyl-1H-pyrazol-4-yl)pyridin-4-yl)oxy)pyridin-2-yl)carbamoyl)tetrahydro-2H-pyran-4-carboxamide]: the IC50 in the test on osteoclast precursors was 10 to 100 nM; in test [1], 10 to 100 nM; in test [2] it was less than 10 nM; in test [3], 100 to 1000 nM; with M-NFS-60 cells, 10 to 100 nM.

Consider `CC(C)(C)C(=O)NC(=O)Nc1ccc(Oc2ccnc(-c3cncnc3)c2)cn1` [Example 90, N-((5-((2-(pyrimidin-5-yl)pyridin-4-yl)oxy)pyridin-2-yl)carbamoyl)pivalamide], for which the IC50 was 10 to 100 nM with osteoclast precursors; greater than 1000 nM in test [1]; 10 to 100 nM in test [2]; greater than 1000 nM in test [3]; greater than 1000 nM with M-NFS-60 cells.

On to `CCC(=O)NC(=O)Nc1ccc(Oc2ccnc(-c3cn(C)cn3)c2)cn1` [Example 138, N-((5-((2-(1-methyl-1H-imidazol-4-yl)pyridin-4-yl)oxy)pyridin-2-yl)carbamoyl)propionamide], for which the IC50 in the test with osteoclast precursors was 10 to 100 nM; in test [1], greater than 1000 nM; in test [2] it was 100 to 1000 nM; in test [3] it was greater than 1000 nM; in the test on M-NFS-60 cells it was 100 to 1000 nM.

In the case of `COC1(C(=O)NC(=O)Nc2cc(C)c(Oc3ccnc(-n4cnc(C)c4)c3)cn2)CCCC1` [Example 162, 1-methoxy-N-((4-methyl-5-((2-(4-methyl-1H-imidazol-1-yl)pyridin-4-yl)oxy)pyridin-2-yl)carbamoyl)cyclopentanecarboxamide], the IC50 in the test with osteoclast precursors was 10 to 100 nM; in test [1] it was 10 to 100 nM; in test [2] it was less than 10 nM; in test [3], 100 to 1000 nM; in the test on M-NFS-60 cells it was less than 10 nM.

As to `Cc1ccc(-c2cc(Oc3ccc(NC(=O)NC(=O)C4CCOC4)nc3)ccn2)cn1` (stereo not drawn) [Example 89, N-((5-((6′-methyl-[2,3′-bipyridin]-4-yl)oxy)pyridin-2-yl)carbamoyl)tetrahydrofuran-3-carboxamide], the IC50 in the test with osteoclast precursors is 10 to 100 nM; in test [1] it was greater than 1000 nM; in test [2], 10 to 100 nM; in test [3] it was greater than 1000 nM; with M-NFS-60 cells, 10 to 100 nM.

As for `Cc1nc(NC(=O)NC(=O)C23CC4CC(CC(C4)C2)C3)ccc1Oc1ccnc(-c2cnn(C)c2)c1` [Example 37, N-((6-methyl-5-((2-(1-methyl-1H-pyrazol-4-yl)pyridin-4-yl)oxy)pyridin-2-yl)carbamoyl)adamantane-1-carboxamide], the IC50 is 100 to 1000 nM with osteoclast precursors; 10 to 100 nM in test [1]; less than 10 nM in test [2]; 10 to 100 nM in test [3]; 10 to 100 nM with M-NFS-60 cells.

Turning to `COC1(C(=O)NC(=O)Nc2ccc(Oc3ccnc(-c4ccnc(C)c4)c3)cn2)CCCC1` [Example 168, 1-methoxy-N-((5-((2′-methyl-[2,4′-bipyridin]-4-yl)oxy)pyridin-2-yl)carbamoyl)cyclopentanecarboxamide], the IC50 in the test on osteoclast precursors was 10 to 100 nM; in test [1] it was 100 to 1000 nM; in test [2] it was less than 10 nM; in test [3], 100 to 1000 nM; in the test with M-NFS-60 cells, 10 to 100 nM.

`Cn1cc(-c2cc(Oc3ccc(NC(=O)NC(=O)C4CC5CCC4C5)nc3)ccn2)cn1` (stereo not drawn) [Example 64, N-((5-((2-(1-methyl-1H-pyrazol-4-yl)pyridin-4-yl)oxy)pyridin-2-yl)carbamoyl)bicyclo[2.2.1]heptane-2-carboxamide]: the IC50 is 10 to 100 nM with osteoclast precursors; less than 10 nM in test [1]; less than 10 nM in test [2]; 10 to 100 nM in test [3]; less than 10 nM in the test with M-NFS-60 cells.

With `COC(C)(C)C(=O)NC(=O)Nc1ccc(Oc2ccnc(-c3ccc(C#N)nc3)c2)c(C)n1` [Example 110, N-((5-((6′-cyano-[2,3′-bipyridin]-4-yl)oxy)-6-methylpyridin-2-yl)carbamoyl)-2-methoxy-2-methylpropanamide], the IC50 in the test with osteoclast precursors is 10 to 100 nM; in test [1], greater than 1000 nM; in test [2], 10 to 100 nM; in test [3] it was greater than 1000 nM; in the test on M-NFS-60 cells, 100 to 1000 nM.

With `Cn1cc(-c2cc(Oc3ccc(NC(=O)NC(=O)C(C)(C)C#N)nc3)ccn2)cn1` [Example 30, 2-cyano-2-methyl-N-((5-((2-(1-methyl-1H-pyrazol-4-yl)pyridin-4-yl)oxy)pyridin-2-yl)carbamoyl)propanamide], the IC50 in test [1] is greater than 1000 nM; in test [2], 100 to 1000 nM; in test [3], greater than 1000 nM; in the test with M-NFS-60 cells, greater than 1000 nM.

Take `Cn1cc(-c2cc(Oc3ccc(NC(=O)NC(=O)C4(C#N)CC4)nc3)ccn2)cn1` [Example 27, 1-cyano-N-((5-((2-(1-methyl-1H-pyrazol-4-yl)pyridin-4-yl)oxy)pyridin-2-yl)carbamoyl)cyclopropanecarboxamide]: the IC50 (in test [1]; in test [2]; in test [3]; in the test on M-NFS-60 cells) was greater than 1000 nM each time.
